# Laboratory results published in paper PMC12207590, “Substrate Specificity of the Organic Cation Transporters MATE1 and MATE2K and Functional Overlap with OCT1 and OCT2” (Journal of Medicinal Chemistry, 2025).
# Where two headings read alike, the source gives them in different places.
# Experiments:
# MATE2K = MATE2K (Homo sapiens, UniProt Q86VL8); assay: Uptake ratio in MATE2K-overexpressing HEK293 cells vs empty vector (2.5 μM, 1 min, HPLC-MS/MS); format: cell-based
# MATE1 = molecular target: T1, MATE1 (Homo sapiens, UniProt Q96FL8); assay: Uptake ratio in MATE1-overexpressing HEK293 cells vs empty vector (2.5 μM, 1 min, HPLC-MS/MS); format: cell-based
# T1 sequence (Q96FL8 1-570): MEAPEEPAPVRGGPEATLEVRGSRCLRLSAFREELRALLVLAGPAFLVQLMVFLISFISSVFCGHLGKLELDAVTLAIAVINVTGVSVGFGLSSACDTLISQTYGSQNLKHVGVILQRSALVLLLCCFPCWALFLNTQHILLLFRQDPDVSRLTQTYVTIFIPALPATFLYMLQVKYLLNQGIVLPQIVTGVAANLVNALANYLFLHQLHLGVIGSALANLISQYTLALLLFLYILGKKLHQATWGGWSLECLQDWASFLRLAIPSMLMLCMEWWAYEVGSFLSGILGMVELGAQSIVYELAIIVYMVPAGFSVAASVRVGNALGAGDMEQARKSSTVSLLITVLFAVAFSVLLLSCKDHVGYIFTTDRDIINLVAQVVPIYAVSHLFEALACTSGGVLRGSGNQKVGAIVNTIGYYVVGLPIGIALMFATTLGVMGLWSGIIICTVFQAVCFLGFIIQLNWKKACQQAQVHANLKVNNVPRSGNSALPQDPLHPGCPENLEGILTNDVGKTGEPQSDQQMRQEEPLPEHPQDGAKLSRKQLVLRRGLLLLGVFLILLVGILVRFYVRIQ
# [1] = fold uptake over empty vector, 2.5 μM, 1 min
# [2] = uptake ratio MATE2K-overexpressing vs empty-vector HEK293 cells, 2.5 μM, 1 min, mean
# [3] = uptake ratio MATE1-overexpressing vs empty-vector HEK293 cells, 2.5 μM, 1 min, mean
# [4] = mean ratio of uptake in MATE2K-overexpressing HEK293 cells vs empty vector, 2.5 μM, 1 min
# [5] = mean ratio of uptake in MATE1-overexpressing HEK293 cells vs empty vector, 2.5 μM, 1 min
# Sequence of MATE2K (Q86VL8 1-566 isoform Q86VL8-3): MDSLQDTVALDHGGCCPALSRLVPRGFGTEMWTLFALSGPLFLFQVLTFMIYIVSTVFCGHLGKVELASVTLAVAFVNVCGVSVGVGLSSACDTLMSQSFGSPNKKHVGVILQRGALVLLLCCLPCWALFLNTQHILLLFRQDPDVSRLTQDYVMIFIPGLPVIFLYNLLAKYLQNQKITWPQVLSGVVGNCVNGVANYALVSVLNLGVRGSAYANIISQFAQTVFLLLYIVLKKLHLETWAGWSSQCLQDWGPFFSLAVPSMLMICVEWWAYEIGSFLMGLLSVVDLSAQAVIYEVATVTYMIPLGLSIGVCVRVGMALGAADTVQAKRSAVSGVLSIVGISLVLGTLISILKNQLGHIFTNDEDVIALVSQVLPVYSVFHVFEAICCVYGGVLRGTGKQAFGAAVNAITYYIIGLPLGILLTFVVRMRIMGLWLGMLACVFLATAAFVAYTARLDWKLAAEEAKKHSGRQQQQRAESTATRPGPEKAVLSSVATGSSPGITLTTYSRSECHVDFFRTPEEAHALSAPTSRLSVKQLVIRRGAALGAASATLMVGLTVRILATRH
smiles,measurement,setting,value
CCc1nc(N)nc(N)c1-c1ccc(Cl)cc1 [Pyrimethamine],MATE2K ratio,MATE2K; [1],1.10
same,MATE2,MATE2K; [2],1.1
same,MATE1 ratio,MATE1; [1],1.17
same,MATE1,MATE1; [3],1.17
CC(=O)c1cc2cccc(OCC(O)CNC(C)C)c2o1 (centres unmarked) [Befunolol],MATE2K ratio,MATE2K; [1],1.38
same,MATE2 (uptake ratio),MATE2K; [4],1.38
same,MATE1 ratio,MATE1; [1],1.39
same,MATE1 (uptake ratio),MATE1; [5],1.39
Nc1ncn([C@H]2C[C@H](O)[C@@H](CO)O2)c(=O)n1 [Decitabine],MATE2K ratio,MATE2K; [1],1.04
same,MATE1 ratio,MATE1; [1],1.13
Nc1ccc(S(=O)(=O)c2ccc(N)cc2)cc1 [Dapsone],MATE2K ratio,MATE2K; [1],0.95
same,MATE1 ratio,MATE1; [1],0.89
NCCCNCCCCNCCCN [Spermine],MATE2K ratio,MATE2K; [1],1.25
same,MATE2,MATE2K; [2],1.25
same,MATE1 ratio,MATE1; [1],1.13
same,MATE1,MATE1; [3],1.13
CCOC(=O)C1=C[C@@H](OC(CC)CC)[C@H](NC(C)=O)[C@@H](N)C1 [Oseltamivir],MATE2K ratio,MATE2K; [1],1.04
same,MATE1 ratio,MATE1; [1],1.18
CCN(CC)C(=O)Nc1ccc(OCC(O)CNC(C)(C)C)c(C(C)=O)c1 (centres unmarked) [Celiprolol],MATE2K ratio,MATE2K; [1],8.76
same,MATE2 (uptake ratio),MATE2K; [4],8.76
same,MATE1 ratio,MATE1; [1],11.01
same,MATE1 (uptake ratio),MATE1; [5],11.01
O=C1CCC[C@@H]2[C@H]3CCCN4CCC[C@@H](CN12)[C@@H]34 [Matrine],MATE2K ratio,MATE2K,1.27
same,MATE1 ratio,MATE1,1.03
CCCCCCCCc1ccc(CCC(N)(CO)CO)cc1 [Fingolimod],MATE2K ratio,MATE2K; [1],1.14
same,MATE1 ratio,MATE1; [1],1.12
"COc1ccccc1OCCNCC(O)COc1cccc2[nH]c3ccccc3c12 [Carvedilol (R), Carvedilol]",MATE2K ratio,MATE2K; [1],1.08
same,MATE2 (uptake ratio),MATE2K; [4],1.08
same,MATE1 ratio,MATE1; [1],1.17
same,MATE1 (uptake ratio),MATE1; [5],1.17
CCC(NC(C)C)C(O)c1ccc(O)c(O)c1 (centres unmarked) [Isoetharine],MATE2K ratio,MATE2K; [1],1.85
same,MATE1 ratio,MATE1; [1],5.65
C=CCN1CCCC1CNC(=O)c1cc(S(N)(=O)=O)cc(OC)c1OC (centres unmarked) [Veralipride],MATE2,MATE2K; [2],4.21
same,MATE1,MATE1; [3],6.39
O=C(O)c1cccnc1 [Niacin],MATE2K ratio,MATE2K; [1],0.90
same,MATE1 ratio,MATE1; [1],1.06
C[n+]1ccc(-c2ccccc2)cc1 [1-Methyl-4-phenylpyridinium],MATE2 (uptake ratio),MATE2K,9.05
same,MATE2K ratio,MATE2K,9.05
same,MATE2K ratio in this study,MATE2K,9.05
same,MATE1 (uptake ratio),MATE1,23.35
same,MATE1 ratio,MATE1,23.35
same,MATE1 ratio in this study,MATE1,23.35
Br.Cc1ncc(C[n+]2cccc(CCO)c2C)c(N)n1.[Br-] [Pyrithiamine],MATE2K ratio,MATE2K; [1],7.32
same,MATE2,MATE2K; [2],7.32
same,MATE1 ratio,MATE1; [1],20.40
same,MATE1,MATE1; [3],20.4
"CNCC[C@@H](Oc1ccccc1C)c1ccccc1 [Atomoxetine (S), Atomoxetine]",MATE2K ratio,MATE2K; [1],1.03
same,MATE2 (uptake ratio),MATE2K; [4],1.03
same,MATE1 ratio,MATE1; [1],1.16
same,MATE1 (uptake ratio),MATE1; [5],1.16
CN(C)C(=O)Oc1cc(OC(=O)N(C)C)cc(C(O)CNC(C)(C)C)c1 (centres unmarked) [Bambuterol],MATE2K ratio,MATE2K; [1],1.21
same,MATE2 (uptake ratio),MATE2K; [4],1.21
same,MATE1 ratio,MATE1; [1],1.52
same,MATE1 (uptake ratio),MATE1; [5],1.52
O=c1cccc2n1C[C@@H]1CNC[C@H]2C1 [Cytisine],MATE2K ratio,MATE2K,1.17
same,MATE1 ratio,MATE1,1.95
N=C(N)N1CCc2ccccc2C1 [Debrisoquine],MATE2K ratio in this study,"MATE2K; Table S1, 2.5 μM, 1 min",5.05
same,MATE2K ratio,MATE2K; [1],5.05
same,MATE1 ratio in this study,"MATE1; Table S1, 2.5 μM, 1 min",8.16
same,MATE1 ratio,MATE1; [1],8.16
CN1CCc2cccc3c2[C@H]1Cc1ccc(O)c(O)c1-3 [Apomorphine],MATE2K ratio,MATE2K; [1],1.02
same,MATE2 (uptake ratio),MATE2K; [4],1.02
same,MATE1 ratio,MATE1; [1],1.05
same,MATE1 (uptake ratio),MATE1; [5],1.05
O=c1[nH]c2ccccc2n1C1CCN(CCCC(c2ccc(F)cc2)c2ccc(F)cc2)CC1 [Pimozide],MATE2K ratio,MATE2K; [1],0.76
same,MATE1 ratio,MATE1; [1],0.98
CCCCC[C@H](O)/C=C/[C@H]1[C@H](O)CC(=O)[C@@H]1C/C=C\CCCC(=O)O [Prostaglandin E2],MATE2,MATE2K,1.21
same,MATE2K ratio,MATE2K,1.21
same,MATE1,MATE1,1.35
same,MATE1 ratio,MATE1,1.35
C[C@]12CCC(=O)C=C1CC[C@@H]1[C@@H]2CC[C@@]2(C)[C@H]1CC[C@]2(C)O [17-Alpha-methyltestosterone],MATE2 (uptake ratio),MATE2K,1.22
same,MATE2K ratio,MATE2K,1.22
same,MATE1 (uptake ratio),MATE1,1.17
same,MATE1 ratio,MATE1,1.17
"CCN1CCCC1CNC(=O)c1cc(S(=O)(=O)CC)c(N)cc1OC [Amisulpride (S), Amisulpride]",MATE2K ratio,MATE2K; [1],7.93
same,MATE2 (uptake ratio),MATE2K; [4],7.93
same,MATE1 ratio,MATE1; [1],13.70
same,MATE1 (uptake ratio),MATE1; [5],13.7
CCc1nn(CCCN2CCN(c3cccc(Cl)c3)CC2)c(=O)n1CCOc1ccccc1 [Nefazodone],MATE2K ratio,MATE2K; [1],1.24
same,MATE1 ratio,MATE1; [1],1.34
COc1cc2c(cc1OC)[C@H](C)NCC2 [Salsolidine],MATE2,MATE2K,1.46
same,MATE2K ratio,MATE2K,1.46
same,MATE1,MATE1,1.24
same,MATE1 ratio,MATE1,1.24
NCC(CC(=O)O)c1ccc(Cl)cc1 (centres unmarked) [Baclofen],MATE2K ratio,MATE2K; [1],1.05
same,MATE2 (uptake ratio),MATE2K; [4],1.05
same,MATE1 ratio,MATE1; [1],1.45
same,MATE1 (uptake ratio),MATE1; [5],1.45
N[C@@H](Cc1ccccc1)C(=O)O [Phenylalanine],MATE2K ratio,MATE2K; [1],1.01
same,MATE1 ratio,MATE1; [1],0.66
COC(=O)CCc1ccc(OCC(O)CNC(C)C)cc1 (centres unmarked) [Esmolol],MATE2K ratio,MATE2K; [1],1.23
same,MATE1 ratio,MATE1; [1],1.42
CN[C@H]1CC[C@@H](c2ccc(Cl)c(Cl)c2)c2ccccc21 [Sertraline],MATE2K ratio,MATE2K; [1],1.10
same,MATE2,MATE2K; [2],1.1
same,MATE1 ratio,MATE1; [1],1.28
same,MATE1,MATE1; [3],1.28
CC(C)(C)NCC(O)COc1ccccc1C#N (centres unmarked) [Bunitrolol],MATE2K ratio,MATE2K; [1],1.31
same,MATE2 (uptake ratio),MATE2K; [4],1.31
same,MATE1 ratio,MATE1; [1],1.17
same,MATE1 (uptake ratio),MATE1; [5],1.17
Nc1cccc2c1C(=O)N(C1CCC(=O)NC1=O)C2=O (centres unmarked) [Pomalidomide],MATE2K ratio,MATE2K; [1],0.89
same,MATE1 ratio,MATE1; [1],1.08
CCN1C[C@]2(COC)[C@H](O)C[C@H](OC)[C@@]34[C@@H]5C[C@@]6(O)[C@H](OC(=O)c7ccccc7)[C@@H]5[C@@](OC(C)=O)([C@@H]([C@H](OC)[C@H]23)[C@@H]14)[C@@H](O)[C@@H]6OC [Aconitine],MATE2 (uptake ratio),MATE2K,1.32
same,MATE2K ratio,MATE2K,1.32
same,MATE1 (uptake ratio),MATE1,1.13
same,MATE1 ratio,MATE1,1.13
Clc1cccc(Cl)c1N=C1NCCN1 [Clonidine],MATE2K ratio,MATE2K; [1],1.17
same,MATE2 (uptake ratio),MATE2K; [4],1.17
same,MATE1 ratio,MATE1; [1],1.11
same,MATE1 (uptake ratio),MATE1; [5],1.11
COc1ccc(-n2nc(C(N)=O)c3c2C(=O)N(c2ccc(N4CCCCC4=O)cc2)CC3)cc1 [Apixaban],MATE2K ratio,MATE2K; [1],1.15
same,MATE2 (uptake ratio),MATE2K; [4],1.15
same,MATE1 ratio,MATE1; [1],1.24
same,MATE1 (uptake ratio),MATE1; [5],1.24
OCCN1CCN(CCCN2c3ccccc3Sc3ccc(C(F)(F)F)cc32)CC1 [Fluphenazine],MATE2K ratio,MATE2K; [1],1.13
same,MATE1 ratio,MATE1; [1],1.26
"CNC[C@H](O)c1cccc(O)c1 [Phenylephrine (S), Phenylephrine]",MATE2K ratio,MATE2K; [1],1.44
same,MATE1 ratio,MATE1; [1],12.74
COc1ccccc1N1CCN(CCCNc2cc(=O)n(C)c(=O)n2C)CC1 [Urapidil],MATE2,MATE2K; [2],1.17
same,MATE1,MATE1; [3],1.19
NC(N)=NCCCC[C@H](N)C(=O)O [Homoarginine],MATE2K ratio,MATE2K,0.97
same,MATE1 ratio,MATE1,0.97
